Key:
[1] = tested on: AsPC-1 cells; experiment: Cellular phospho-ERK assay, AsPC-1 cells (homozygous KRAS-G12D); assay type: cell-based; details: Homo sapiens, ASPC1, 2 h, KRAS-G12D, 2 hours, read-out: AsPC1 pERK IC50
Outline: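 Readout: p-ERK/total ERK ratio measured by Alpha SureFire Ultra multiplex in lysates after 2 h compound exposure (37 °C, 5% CO2). Dosing ran 10 points, 1:3 dilutions, highest final concentration 30 μM. IC50 values derived by four-parameter logistic regression.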

[2] = molecular target: KRAS-G12V (Homo sapiens, UniProt P01116, G12V); experiment: SOS-catalyzed nucleotide exchange assay (Procedure A, TR-FRET), KRAS-G12V; assay type: biochemical; details: nucleotide exchange, read-out: KRAS G12V GNE IC50
Chain of KRAS-G12V (P01116 with tags, fused parts or gaps isoform P01116-2 G12V): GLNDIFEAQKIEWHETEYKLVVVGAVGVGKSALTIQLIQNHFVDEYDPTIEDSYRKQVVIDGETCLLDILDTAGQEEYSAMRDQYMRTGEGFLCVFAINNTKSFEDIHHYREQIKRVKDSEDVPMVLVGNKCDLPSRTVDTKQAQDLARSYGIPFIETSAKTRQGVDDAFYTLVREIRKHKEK
Outline: (§1)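 TR-FRET 520/495 nm ratio read after SOS-driven exchange of Bodipy-GDP for unlabeled GTP (3 mM) on biotinylated RAS bound to Tb-streptavidin. There was a 60 min compound preincubation, RT. Final RAS/SOS and reaction times: G12C 3 nM/40 nM; WT 1 nM/40 nM; NRAS 1.25 nM/40 nM, each 60 min. G12V was 1.25 nM/160 nM, 90 min.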

[3] = molecular target: KRAS-G12D (Homo sapiens, UniProt P01116, G12D); experiment: SOS-catalyzed nucleotide exchange assay (Procedure A, TR-FRET), KRAS-G12D; assay type: biochemical; details: nucleotide exchange, read-out: KRAS G12D GNE IC50
Chain of KRAS-G12D (P01116 with tags, fused parts or gaps isoform P01116-2 G12D): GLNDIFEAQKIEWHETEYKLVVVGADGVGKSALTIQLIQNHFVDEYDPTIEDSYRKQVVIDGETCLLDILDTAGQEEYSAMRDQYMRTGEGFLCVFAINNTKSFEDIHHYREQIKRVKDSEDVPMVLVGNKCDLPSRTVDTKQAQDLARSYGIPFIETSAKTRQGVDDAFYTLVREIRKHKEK
Outline: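 Signal ratio (520/495 nm, excitation 340 nm) reports Bodipy-GDP retention on biotinylated RAS after SOS-catalyzed exchange with 3 mM GTP. SOS was 40 nM, except 160 nM for G12V. Room-temperature exchange lasted 60 min (90 min for G12V), following a 60 min compound preincubation.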

[4] = molecular target: KRAS-WT (Homo sapiens, UniProt P01116); experiment: SOS-catalyzed nucleotide exchange assay (Procedure A, TR-FRET), KRAS-WT; assay type: biochemical; details: nucleotide exchange, read-out: KRAS WT GNE IC50
Chain of KRAS-WT (P01116 with tags, fused parts or gaps isoform P01116-2): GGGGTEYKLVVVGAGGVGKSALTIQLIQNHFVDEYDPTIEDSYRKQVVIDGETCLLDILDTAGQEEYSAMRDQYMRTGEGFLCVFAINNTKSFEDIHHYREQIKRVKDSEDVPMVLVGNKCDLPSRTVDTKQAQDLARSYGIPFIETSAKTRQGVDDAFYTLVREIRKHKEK
Outline: as §1

CNc1cc2c(sc3nc(OC[C@@]45CCCN4C[C@H](F)C5)nc(N4CCOC[C@@](C)(O)C4)c32)c(-c2c(C(F)(F)F)c(C)cc3[nH]ncc23)n1 [Ex-30, (6S)-4-(2-(((2R,7aS)-2-fluorotetrahydro-1H-pyrrolizin-7a(5H)-yl)methoxy)-8-(6-methyl-5-(trifluoromethyl)-1H-indazol-4-yl)-6-(methylamino)pyrido[4′,3′:4,5]thieno[2,3-d]pyrimidin-4-yl)-6-methyl-1,4-oxazepan-6-ol]
IC50 [1]: 730 nM
IC50 [2]: 196 nM
IC50 [3]: 158 nM
IC50 [4]: 436 nM

C[C@@]1(O)COCCN(c2nc(OC[C@@]34CCCN3C[C@H](F)C4)nc3sc4c(-c5cc(O)cc(Cl)c5C5CC5)nccc4c23)C1 [Ex-124, (S)-4-(8-(3-chloro-2-cyclopropyl-5-hydroxyphenyl)-2-(((2R,7aS)-2-fluorotetrahydro-1H-pyrrolizin-7a(5H)-yl)methoxy)pyri-do[4′,3′:4,5]thieno[2,3-d]pyrimidin-4-yl)-6-methyl-1,4-oxazepan-6-ol]
IC50 [1]: 151 nM
IC50 [2]: 24.1 nM
IC50 [3]: 11.1 nM
IC50 [4]: 39.4 nM

Cc1cc2[nH]ncc2c(-c2nncc3c2sc2nc(OC[C@@]45CCCN4C[C@H](F)C5)nc(N4CCOC[C@@](C)(O)C4)c23)c1-c1ccco1 [Ex-281, (6S)-4-(2-(((2R,7aS)-2-fluorotetrahydro-1H-pyrrolizin-7a(5H)-yl)methoxy)-8-(5-(furan-2-yl)-6-methyl-1H-indazol-4-yl)pyrimido[5′,4′:4,5]thie-no[2,3-d]pyridazin-4-yl)-6-methyl-1,4-oxazepan-6-ol]
IC50 [1]: 356 nM
IC50 [2]: 11.7 nM
IC50 [3]: 8.24 nM
IC50 [4]: 31.2 nM

Cn1ccc2cc3[nH]ncc3c(-c3nccc4c3sc3nc(OC[C@@]56CCCN5C[C@H](F)C6)nc(N5CCOC[C@@](C)(O)C5)c34)c21 [Ex-46]
IC50 [1]: 934 nM
IC50 [2]: 157 nM
IC50 [3]: 72.4 nM
IC50 [4]: 166 nM

CN(C)C1CC(F)(F)C2C[C@]12COc1nc(N2CCOC[C@@](C)(O)C2)c2c(n1)sc1c(-c3c(C4(F)CC4)c(Cl)cc4[nH]ncc34)nccc12 (stereo partly drawn) [Ex-270, (6S)-4-(8-(6-chloro-5-(1-fluorocyclopropyl)-1H-indazol-4-yl)-2-((2-(dimethylamino)-4,4-difluorobicy-clo[3.1.0]hexan-1-yl)methoxy)pyri-do[4′,3′:4,5]thi-eno[2,3-d]pyrimidin-4-yl)-6-methyl-1,4-oxazepan-6-ol]
IC50 [1]: 142 nM
IC50 [2]: 30.9 nM
IC50 [3]: 8.78 nM
IC50 [4]: 27.9 nM

Cc1cc2[nH]ncc2c(-c2nc(-c3ccoc3)cc3c2sc2nc(OC[C@@]45CCCN4C[C@H](F)C5)nc(N4CCOC[C@@](C)(O)C4)c23)c1C(F)(F)F [Ex-29, (6S)-4-(2-(((2R,7aS)-2-fluorotetrahydro-1H-pyrrolizin-7a(5H)-yl)methoxy)-6-(furan-3-yl)-8-(6-methyl-5-(trifluoromethyl)-1H-indazol-4-yl)pyrido[4′,3′:4,5]thieno[2,3-d]pyrimidin-4-yl)-6-methyl-1,4-oxazepan-6-ol]
IC50 [1]: 1530 nM
IC50 [2]: 143 nM
IC50 [3]: 251 nM
IC50 [4]: 852 nM

CO[C@H]1C[C@@H](COc2nc(N3CCOC[C@@](C)(O)C3)c3c(n2)sc2c(-c4c(C5CC5)c(C(F)(F)F)cc5[nH]ncc45)nccc23)N(C)C1 [Ex-84, (6S)-4-(8-(5-cyclopropyl-6-(trifluoromethyl)-1H-indazol-4-yl)-2-(((2S,4S)-4-methoxy-1-methylpyrrolidin-2-yl)methoxy)pyrido[4′,3′:4,5]thi-eno[2,3-d]pyrimidin-4-yl)-6-methyl-1,4-oxazepan-6-ol]
IC50 [1]: 2890 nM
IC50 [2]: 847 nM
IC50 [3]: 670 nM
IC50 [4]: 1380 nM

Reference: patent US20260176289A1, “SMALL MOLECULE INHIBITORS OF KRAS PROTEINS” (Merck Sharp & Dohme LLC, priority 2022, published 2026)
